# Like-named read-outs stand apart in the source and are kept apart here.
# How the values were obtained:
# Assay in all cases: Anti-proliferative assay, cell-titre luminescent reagent, 72 h (GVK-BIO)
# Type in all cases: cell-based
# SK-Mel-28 melanoma cells = settings: Homo sapiens
# Method: (§1) The ability of compounds 4001, 4002, 4008, 4010, 4011, 4013-4015, 4018, 4026, 4045-4113 and 4115-4127 to inhibit the proliferation of cancer cells representative of neuroblastoma, melanoma, prostate cancer, colorectal cancer, non-small cell lung carcinoma, and triple negative breast cancer was assessed. These studies were conducted by contract research (GVK-BIO). Briefly, a pre-determined number of cells as calculated from cell growth assays for each of the cell lines employed were seeded into their respective culture medium (using ATCC culture parameters—http://www.atcc.org) and cultured for 24 h at 37° C. and 5% CO2 in 96-well culture plates. Once attached, each cell line was then exposed to various concentrations of each respective analogue (30, 3, 0.3 and 0.03 μM for compounds in Tables 2, 3 and 4; 30, 10, 3, 1, 0.3 and 0.1 μM for compounds in Table 5), cultured for a further 72 h and exposed to cell-titre luminescent reagent (100 μL/well) for a further 30 min). Luminescence was captured using an EnVision multilabel reader and the data for each analogue concentration compared against no treatment control. For compounds in Tables 2-4, semi-log plots of Percent of Control versus concentration were prepared and IC50 determined using linear regression analysis. For compounds in Table 5, cell viability was normalized to control (vehicle alone) and dose-response curves, and half maximal effective concentration (EC50) values were determined using Graph Pad Prism 6 (nonlinear regression sigmoidal dose-response variable slope).
# [1] = system: DU145 prostate cancer cells; settings: Homo sapiens
# Method: as §1
# [2] = system: MDA-MB-231 triple negative breast cancer cells; settings: Homo sapiens
# Method: as §1
# [3] = system: A549 non-small cell lung carcinoma cells; settings: Homo sapiens, read-out: IC50/μM Lung (NSLC) A549
# Method: as §1
# [4] = system: SK-N-SH neuroblastoma cells; settings: Homo sapiens
# Method: as §1
# [5] = system: PC3 prostate cancer cells
# Method: as §1
# [6] = system: CaCo2 colorectal cancer cells; settings: Homo sapiens
# Method: as §1
# [7] = SK-MEL-28, 72 h, 30, 3, 0.3 and 0.03 μM, linear regression (Tables 2-4)
# [8] = DU-145, 72 h, 30, 3, 0.3 and 0.03 μM, linear regression (Tables 2-4)
# [9] = MDA-MB-231, 72 h, 30, 3, 0.3 and 0.03 μM, linear regression (Tables 2-4)
# [10] = A549, 72 h, 30, 3, 0.3 and 0.03 μM, linear regression (Tables 2-4)
# [11] = SK-N-SH, 30, 3, 0.3 and 0.03 μM, linear regression (Tables 2-4)
# [12] = 30, 3, 0.3 and 0.03 μM, linear regression (Tables 2-4)
# [13] = Caco-2, 72 h, 30, 3, 0.3 and 0.03 μM, linear regression (Tables 2-4)
# [14] = SK-MEL-28, 72 h, 30, 10, 3, 1, 0.3 and 0.1 μM, nonlinear regression (Table 5)
# [15] = DU-145, 72 h, 30, 10, 3, 1, 0.3 and 0.1 μM, nonlinear regression (Table 5)
# [16] = MDA-MB-231, 72 h, 30, 10, 3, 1, 0.3 and 0.1 μM, nonlinear regression (Table 5)
# [17] = A549, 72 h, 30, 10, 3, 1, 0.3 and 0.1 μM, nonlinear regression (Table 5)
# [18] = SK-N-SH, 30, 10, 3, 1, 0.3 and 0.1 μM, nonlinear regression (Table 5)
# [19] = 30, 10, 3, 1, 0.3 and 0.1 μM, nonlinear regression (Table 5)
# [20] = Caco-2, 72 h, 30, 10, 3, 1, 0.3 and 0.1 μM, nonlinear regression (Table 5)
Compound,IC50 (SK-Mel-28 melanoma cells; [7]) [µM],"IC50 [1, 8] [µM]","IC50 [2, 9] [µM]","IC50 [3, 10] [µM]","IC50 [4, 11] [µM]","IC50 [5, 12] [µM]","IC50 [6, 13] [µM]",IC50 (SK-Mel-28 melanoma cells; [14]) [µM],"IC50 [1, 15] [µM]","IC50 [2, 16] [µM]","IC50 [3, 17] [µM]","IC50 [4, 18] [µM]","IC50 [5, 19] [µM]","IC50 [6, 20] [µM]"
"Cc1c(C)n(CCCN2CCN(C)CC2)c2ccc(C(=O)N3CCN(CCc4ccc5c(c4)OCO5)CC3)cc12 [Compound 4123, (4-(2-(benzo[d][1,3]dioxol-5-yl)ethyl)piperazin-1-yl)(2,3-dimethyl-1-(3-(4-methylpiperazin-1-yl)propyl)-1H-indol-5-yl)methanone]",16.8,> 30,16.3,15.6,12.3,> 30,> 30,,,,,,,
"COc1cccc(NC(=O)c2ccc(Nc3ccc4c(ccn4CCCN(C)C)c3)cc2)c1 [Compound 4103, 4-((1-(3-(dimethylamino)propyl)-1H-indol-5-yl)amino)-N-(3-methoxyphenyl)benzamide]",5.4,3.7,2.7,3,2.9,5.4,5,,,,,,,
"CN(C)CCCn1ccc2cc(Cc3cccc(C(=O)Nc4ccc5c(c4)OCO5)c3)ccc21 [Compound 4047, N-(benzo[d][1,3]dioxol-5-yl)-3-((1-(3-(dimethylamino)propyl)-1H-indol-5-yl)methyl)benzamide]",2.5,3.4,3,3,3.1,3.1,3,,,,,,,
"Cc1c(C)n(CCCN2CCN(C)CC2)c2ccc(CN3CCN(CCc4ccccc4)CC3)cc12 [Compound 4117, 2,3-dimethyl-1-(3-(4-methylpiperazin-1-yl)propyl)-5-((4-phenethylpiperazin-1-yl)methyl)-1H-indole]",,,,,,,,2,5.6,3.5,8.6,4.6,10.2,8.2
"COc1ccc(NC(=O)c2cccc(Oc3ccc4c(ccn4CCCN(C)C)c3)c2)cc1 [Compound 4057, 3-((1-(3-(dimethylamino)propyl)-1H-indol-5-yl)oxy)-N-(4-methoxyphenyl)benzamide]",2.7,6.4,3,4.4,4.9,8.7,10.3,,,,,,,
"Cc1c(C)n(CCCN(C)C)c2ccc(Oc3ccc(C(=O)Nc4ccc5c(c4)OCO5)cc3)cc12 [Compound 4095, N-(benzo[d][1,3]dioxol-5-yl)-4-((1-(3-(dimethylamino)propyl)-2,3-dimethyl-1H-indol-5-yl)oxy)benzamide]",2.3,1.2,1.6,1,1.5,1.4,2.3,,,,,,,
"CN(C)CCCn1ccc2cc(Oc3cccc(C(=O)Nc4cccc(F)c4)c3)ccc21 [Compound 4059, 3-((1-(3-(dimethylamino)propyl)-1H-indol-5-yl)oxy)-N-(3-fluorophenyl)benzamide]",15.5,> 30,13.2,13.4,11.3,> 30,> 30,,,,,,,
"CN(C)CCCn1ccc2cc(Oc3ccc(C(=O)Nc4ccc5c(c4)OCO5)cc3)ccc21 [Compound 4090, N-(benzo[d][1,3]dioxol-5-yl)-4-((1-(3-(dimethylamino)propyl)-1H-indol-5-yl)oxy)benzamide]",,,,,,,,7.2,4.6,9.6,8.4,6.3,2.5,5.3
"Cc1c(C)n(CCCN2CCN(C)CC2)c2ccc(CN3CCN(CCc4cccc(O)c4)CC3)cc12 [Compound 4116, 3-(2-(4-((2,3-dimethyl-1-(3-(4-methylpiperazin-1-yl)propyl)-1H-indol-5-yl)methyl)piperazin-1-yl)ethyl)phenol]",,,,,,,,3.2,7.6,4.1,10.1,4.6,13.2,6
"Cc1c(C)n(CCCN2CCN(C)CC2)c2ccc(C(=O)N3CCN(CCc4ccccc4)CC3)cc12 [Compound 4127, (2,3-dimethyl-1-(3-(4-methylpiperazin-1-yl)propyl)-1H-indol-5-yl)(4-phenethylpiperazin-1-yl)methanone]",14.4,> 30,13.5,13.1,10.5,12.9,10.7,,,,,,,
"COc1cccc(NC(=O)c2ccc(Cc3ccc4c(c3)c(C)c(C)n4CCCN(C)C)cc2)c1 [Compound 4086, 4-((1-(3-(dimethylamino)propyl)-2,3-dimethyl-1H-indol-5-yl)methyl)-N-(3-methoxyphenyl)benzamide]",,,,,,,,5.2,4.3,6.2,5,5.7,4.8,7.6

# Other lines, results leading:
IC50 (SK-Mel-28 melanoma cells; [7]) [µM],"IC50 [1, 8] [µM]","IC50 [2, 9] [µM]","IC50 [3, 10] [µM]","IC50 [4, 11] [µM]","IC50 [5, 12] [µM]","IC50 [6, 13] [µM]",IC50 (SK-Mel-28 melanoma cells; [14]) [µM],"IC50 [1, 15] [µM]","IC50 [2, 16] [µM]","IC50 [3, 17] [µM]","IC50 [4, 18] [µM]","IC50 [5, 19] [µM]","IC50 [6, 20] [µM]",Compound
3.5,3.3,2.6,2.9,3.7,2.5,2.7,,,,,,,,"Cc1c(C)n(CCCN(C)C)c2ccc(Oc3ccc(C(=O)Nc4cccc(F)c4)cc3)cc12 [Compound 4096, 4-((1-(3-(dimethylamino)propyl)-2,3-dimethyl-1H-indol-5-yl)oxy)-N-(3-fluorophenyl)benzamide]"
10.5,11,11.2,10.1,9.8,10.1,10.9,,,,,,,,"Cc1c(C)n(CCCN(C)C)c2ccc(Cc3ccc(C(=O)Nc4cccc(F)c4)cc3)cc12 [Compound 4085, 4-((1-(3-(dimethylamino)propyl)-2,3-dimethyl-1H-indol-5-yl)methyl)-N-(3-fluorophenyl)benzamide]"
3.6,4.1,4.2,4,3.4,4.1,3.2,,,,,,,,"Cc1c(C)n(CCCN(C)C)c2ccc(Nc3ccc(C(=O)Nc4ccc(F)cc4)cc3)cc12 [Compound 4104, 4-((1-(3-(dimethylamino)propyl)-2,3-dimethyl-1H-indol-5-yl)amino)-N-(4-fluorophenyl)benzamide]"
2.8,3.5,2.8,2.9,3.6,3.5,3.6,,,,,,,,"Cc1c(C)n(CCCN(C)C)c2ccc(Nc3ccc(C(=O)Nc4cccc(F)c4)cc3)cc12 [Compound 4107, 4-((1-(3-(dimethylamino)propyl)-2,3-dimethyl-1H-indol-5-yl)amino)-N-(3-fluorophenyl)benzamide]"
3,2.9,1.7,1.9,1.7,3.8,2,,,,,,,,"Cc1c(C)n(CCCN(C)C)c2ccc(Nc3cccc(C(=O)Nc4ccc(F)cc4)c3)cc12 [Compound 4072, 3-((1-(3-(dimethylamino)propyl)-2,3-dimethyl-1H-indol-5-yl)amino)-N-(4-fluorophenyl)benzamide]"
2.6,3.6,2.7,3.6,3.4,3.7,2.6,,,,,,,,"COc1ccc(NC(=O)c2ccc(Nc3ccc4c(c3)c(C)c(C)n4CCCN(C)C)cc2)cc1 [Compound 4105, 4-((1-(3-(dimethylamino)propyl)-2,3-dimethyl-1H-indol-5-yl)amino)-N-(4-methoxyphenyl)benzamide]"
,,,,,,,4.8,7.1,7.5,8.9,5.6,7.4,23.1,"Cc1c(C)n(CCCN(C)C)c2ccc(Cc3ccc(C(=O)Nc4ccccc4)cc3)cc12 [Compound 4087, 4-((1-(3-(dimethylamino)propyl)-2,3-dimethyl-1H-indol-5-yl)methyl)-N-phenylbenzamide]"

# From patent US20170166555A1, “FUNCTIONALISED AND SUBSTITUTED INDOLES AS ANTI-CANCER AGENTS” (Novogen Limited, priority 2013, published 2017)
